Measurements taken from patent publication US20110044938A1 (NYCOMED GMBH, priority 2006, published 2011).

Experiments:
[1] = system: RKO (RKOp27) human colon adenocarcinoma cells; test: Alamar Blue cell viability assay, anti-proliferative/cytotoxic activity on proliferating RKO subclones; type: cell-based; details: RKOp27, 72 h, RKO p27 uninduced (proliferating) cells, value = class bound given in Table A, read-out: −logIC50 RKO p27 uninduced (proliferating) (converted)
Procedure, shortened: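 RKOp27 subclones (5000 cells/well) were exposed 24 h after seeding to semi-log compound dilutions in DMEM with 10% FCS, in quadruplicate, for 72 h at 37 °C. Viability was read by Alamar Blue fluorescence (544/590 nm) relative to untreated cells (1% DMSO medium). IC50 came from concentration-effect curves and is reported as −log IC50 [mol/l].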

[2] = system: subclones of RKO colon adenocarcinoma cells (RKOp27 or RKOp21) arrested by Ponasterone A; test: Alamar Blue cell viability assay, cell cycle specific mode of action: cells arrested by ectopic p27Kip1 induced by Ponasterone A versus proliferating cells; type: cell-based; details: Homo sapiens, RKO p27 induced (arrested) cells, 10 μM Ponasterone A, 72 hours, value = class bound given in Table A, read-out: −logIC50 RKO p27 induced (arrested) (converted)
Procedure, shortened: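 RKOp27 or RKOp21 cells, 15000/well in DMEM/10% FCS, either arrested by p27Kip1 induced with 10 μM Ponasterone A or proliferating without inducer; compound added after 24 h, 72 h at 37° C. Alamar Blue fluorescence (544/590 nm), viability as % of untreated cells; −log IC50 reported.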

## N#Cc1c(NC(=O)/C=C/c2cccnc2)sc2c1CCC(OC(=O)N1CC[C@H](O)C1)C2 (stereo partly drawn) [Example 146, (S)-3-Hydroxy-pyrrolidine-1-carboxylic acid 3-cyano-2-((E)-3-pyridin-3-yl-allanoylamino)-4,5,6,7-tetrahydro-benzo[b]thiophen-6-yl ester]
[1]
  IC50: ≤ 501 nM
[2]
  IC50: ≥ 100000 nM

## COc1cccc(C(C)CC(=O)Nc2sc3c(c2C#N)CCC(OC(=O)NCc2cc(C)nn2C)C3)c1 (stereo not drawn) [Example 273, (2,5-Dimethyl-2H-pyrazol-3-ylmethyl)-carbamic acid 3-cyano-2-[3-(3-methoxy-phenyl)-butanoylamino]-4,5,6,7-tetrahydro-benzo[b] thiophen-6-yl ester]
[1]
  IC50: ≤ 501 nM
[2]
  IC50: ≥ 100000 nM

## Cc1nn(C)cc1CNC(=O)OCC1CCc2c(sc(NC(=O)CC(C)c3ccccc3)c2C#N)C1 (stereo not drawn) [Example 320, (1,3-Dimethyl-1H-pyrazol-4-ylmethyl)-carbamic acid 3-cyano-2-(3-phenyl-butanoylamino)-4,5,6,7-tetrahydro-benzo[b]thiophen-6-ylmethyl ester]
[1]
  IC50: ≤ 501 nM
[2]
  IC50: ≥ 10000 nM

## CCOc1ccccc1/C=C/C(=O)Nc1sc2c(c1C#N)CCC(COC(=O)NCc1ccccn1)C2 (stereo not drawn) [Example 15, Pyridin-2-ylmethyl-carbamic acid 3-cyano-2-[(E)-3-(2-ethoxy-phenyl)-allanoylamino]-4,5,6,7-tetrahydro-benzo[b]thiophen-6-ylmethyl ester]
[1]
  IC50: 501 to 2000 nM
[2]
  IC50: ≥ 100000 nM

## Cc1ccncc1/C=C/C(=O)Nc1sc2c(c1C#N)CCC(COC(=O)N(C)C)C2 (stereo not drawn) [Example 129, Dimethyl-carbamic acid 3-cyano-2-[(E)-3-(4-methyl-pyridin-3-yl)-allanoylamino]-4,5,6,7-tetrahydro-benzo[b]thiophen-6-ylmethyl ester]
[1]
  IC50: ≤ 501 nM
[2]
  IC50: ≥ 100000 nM

## CC(CC(=O)Nc1sc2c(c1C#N)CCC(OC(=O)N1CCCC1)C2)c1cccnc1 (stereo not drawn) [Example 369, Pyrrolidine-1-carboxylic acid 3-cyano-2-(3-pyridin-3-yl-butanoylamino)-4,5,6,7-tetrahydro-benzo[b]thiophen-6-yl ester]
[1]
  IC50: 501 to 2000 nM
[2]
  IC50: ≥ 50100 nM

## CC(CC(=O)Nc1sc2c(c1C#N)CCC(COC(=O)NCc1cccn1C)C2)c1ccccc1 (stereo not drawn) [Example 319, (1-Methyl-1H-pyrrol-2-ylmethyl)-carbamic acid 3-cyano-2-(3-phenyl-butanoylamino)-4,5,6,7-tetrahydro-benzo[b] thiophen-6-ylmethyl ester]
[1]
  IC50: ≤ 501 nM
[2]
  IC50: ≥ 50100 nM

## N#Cc1c(NC(=O)/C=C/c2cccnc2)sc2c1CCC(OC(=O)NCC1CCCO1)C2 (stereo not drawn) [Example 70, (Tetrahydro-furan-2-ylmethyl)-carbamic acid 3-cyano-2-((E)-3-pyridin-3-yl-allanoylamino)-4,5,6,7-tetrahydro-benzo[b]thiophen-6-yl ester]
[1]
  IC50: 501 to 2000 nM
[2]
  IC50: ≥ 100000 nM

## Cc1cc(CNC(=O)OCC2CCc3c(sc(NC(=O)CC(C)c4ccccc4)c3C#N)C2)no1 (stereo not drawn) [Example 314, (5-Methyl-isoxazol-3-ylmethyl)-carbamic acid 3-cyano-2-(3-phenyl-butanoylamino)-4,5,6,7-tetrahydro-benzo[b] thiophen-6-ylmethyl ester]
[1]
  IC50: ≤ 501 nM
[2]
  IC50: ≥ 50100 nM

## COc1cccc(C(C)CC(=O)Nc2sc3c(c2C#N)CCC(COC(=O)NCc2conc2C)C3)c1 (stereo not drawn) [Example 365]
[1]
  IC50: 501 to 2000 nM
[2]
  IC50: ≥ 100000 nM

## N#Cc1c(NC(=O)/C=C/c2cccnc2)sc2c1CCC(OC(=O)N[C@H]1CC[C@@H](O)CC1)C2 (stereo partly drawn) [Example 128, cis-4-Hydroxycyclohexyl-carbamic acid 3-cyano-2-((E)-3-pyridin-3-yl-allanoylamino)-4,5,6,7-tetrahydro-benzo[b]thiophen-6-yl ester]
[1]
  IC50: 501 to 2000 nM
[2]
  IC50: ≥ 100000 nM

## N#Cc1c(NC(=O)/C=C/c2cccnc2)sc2c1CCC(COC(=O)N1CCCCC1)C2 (stereo not drawn) [Example 83, Piperidine-1-carboxylic acid 3-cyano-2-((E)-3-pyridin-3-yl-allanoylamino)-4,5,6,7-tetrahydro-benzo[b]thiophen-6-ylmethyl ester]
[1]
  IC50: ≤ 501 nM
[2]
  IC50: ≥ 100000 nM
